For assay [1], the target named is T1, human CB1 receptor (Homo sapiens, UniProt P21554).
T1 construct: expressed in transfected cells; host or cells: HEK293
As to the kind of experiment: bioSensAll β-arrestin plasma membrane translocation BRET biosensor (+GRK2) assay (antagonism of CP-55,940). It counts as cell-based. The conditions noted are these: HEK293 cells transfected with hCB1 and β-arrestin PM translocation biosensor (+GRK2), EC75 of CP-55,940 (100 nM), overnight incubation, read-out: CB1 wt βarr2 IC50. The essentials:
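HEK293 cells co-transfected with hCB1 and β-arrestin plasma-membrane translocation BRET biosensor plus GRK2, tested ~48 h later in HBSS. Compounds (12 doses, 0–600 nM) added 3–5 min before CP-55,940 at EC75 of 100 nM. uBRET ratio (515/400 nm) fitted by four-parameter logistic regression.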

The target in assay [2] is T1, human CB1 receptor. Put plainly: bioSensAll GAPL-Gi2 BRET biosensor assay (antagonism of CP-55,940). It counts as cell-based. The conditions noted are these: HEK293 cells transfected with hCB1 and GAPL-Gi2 biosensor, EC75 of CP-55,940 (0.1 nM), overnight incubation, read-out: CB1 wt Gi2 IC50. Summed up: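 HEK293 cells transiently co-transfected with hCB1 and GAPL-Gi2 BRET biosensor; ~48 h later, in HBSS, 12 compound doses ([…]) added 3–5 min before CP-55,940 at EC75 (0.1 nM). BRET ratio 515/400 nm with coelenterazine, standardized to uBRET; four-parameter logistic fit.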

Some results are limits rather than exact numbers.

T1 sequence (P21554 whole entry): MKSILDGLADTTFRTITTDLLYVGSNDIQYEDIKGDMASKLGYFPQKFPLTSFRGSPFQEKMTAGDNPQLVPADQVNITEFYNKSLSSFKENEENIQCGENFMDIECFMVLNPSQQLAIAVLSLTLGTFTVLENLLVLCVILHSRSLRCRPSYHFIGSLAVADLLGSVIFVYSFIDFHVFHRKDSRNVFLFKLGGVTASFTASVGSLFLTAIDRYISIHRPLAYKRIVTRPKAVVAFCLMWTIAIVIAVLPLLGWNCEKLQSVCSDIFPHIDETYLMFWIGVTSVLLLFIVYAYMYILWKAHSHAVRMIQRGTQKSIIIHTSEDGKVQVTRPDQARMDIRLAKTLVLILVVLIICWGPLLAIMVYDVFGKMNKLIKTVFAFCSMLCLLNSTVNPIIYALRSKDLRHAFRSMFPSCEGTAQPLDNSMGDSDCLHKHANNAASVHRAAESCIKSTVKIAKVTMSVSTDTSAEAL

In the case of `CCNC(=O)CN(C)c1cc(N2CCC(OCC)(C(N)=O)CC2)n2nc(-c3ccccc3Cl)c(-c3ccc(Cl)cc3)c2n1` [Compound 48, 1-[2-(2-chlorophenyl)-3-(4-chlorophenyl)-5-[[2-(ethylamino)-2-oxo-ethyl]-methyl-amino]pyrazolo[1,5-a]pyrimidin-7-yl]-4-ethoxy-piperidine-4-carboxamide], the IC50 (in general, the concentration needed to halve the response being measured) is 19.4 nM in assay [1] and 3.89 nM in assay [2].

Take `NC(=O)CC1CN(c2cc(N3CCC[C@H]3C(N)=O)nc3c(-c4ccc(Cl)cc4)c(-c4ccccc4Cl)nn23)C1` [Compound 35, (2S)-1-[7-[3-(2-amino-2-oxo-ethyl)azetidin-1-yl]-2-(2-chlorophenyl)-3-(4-chlorophenyl)pyrazolo[1,5-a]pyrimidin-5-yl]pyrrolidine-2-carboxamide]: the concentration for half-maximal inhibition (IC50) was above 10000 nM in assay [1] and 158 nM in assay [2].

Regarding `CN(CP(C)(C)=O)c1cc(N2CC(CC(N)=O)C2)n2nc(-c3ccccc3Cl)c(-c3ccc(Cl)cc3)c2n1` [Compound 33, 2-[1-[2-(2-chlorophenyl)-3-(4-chlorophenyl)-5-[dimethylphosphorylmethyl(methyl)amino]pyrazolo[1,5-a]pyrimidin-7-yl]azetidin-3-yl]acetamide], the IC50 in assay [1] is 116 nM; in assay [2] it was above 10000 nM.

Turning to `CC(C)(O)COc1cc(N2CCC[C@H](C(N)=O)C2)n2nc(-c3ccccc3Cl)c(-c3ccc(Cl)cc3)c2n1` [Compound 17(S), (3S)-1-[2-(2-chlorophenyl)-3-(4-chlorophenyl)-5-(2-hydroxy-2-methyl-propoxy)pyrazolo[1,5-a]pyrimidin-7-yl]piperidine-3-carboxamide], the IC50 in assay [1] came out at 40.4 nM; in assay [2], 9.09 nM.

For `CN(CP(C)(C)=O)c1cc(N2CCC(C)(C(N)=O)CC2)n2nc(-c3ccccc3Cl)c(-c3ccc(Cl)cc3)c2n1` [Compound 40, 1-[2-(2-chlorophenyl)-3-(4-chlorophenyl)-5-[dimethylphosphorylmethyl (methyl)amino]pyrazolo[1,5-a]pyrimidin-7-yl]-4-methyl-piperidine-4-carboxamide], the IC50 in assay [1] was determined as 112 nM; in assay [2] it was 17.3 nM.

With `CNC(=O)CCN(C)c1cc(N2CCC(C)(C(N)=O)CC2)n2nc(-c3ccccc3Cl)c(-c3ccc(Cl)cc3)c2n1` [Compound 38, 1-[2-(2-chlorophenyl)-3-(4-chlorophenyl)-5-[methyl-[3-(methylamino)-3-oxo-propyl]amino]pyrazolo[1,5-a]pyrimidin-7-yl]-4-methyl-piperidine-4-carboxamide], the IC50 in assay [1] came to 10.9 nM; in assay [2] it was 2.48 nM.

`CNC(=O)[C@H]1CCN1c1cc(N2CCC(C)(C(N)=O)CC2)n2nc(-c3ccccc3Cl)c(-c3ccc(Cl)cc3)c2n1` [Compound 65, 1-[2-(2-chlorophenyl)-3-(4-chlorophenyl)-5-[(2R)-2-(methylcarbamoyl)azetidin-1-yl]pyrazolo[1,5-a]pyrimidin-7-yl]-4-methyl-piperidine-4-carboxamide]: the IC50 was 20.6 nM in assay [1] and 13.3 nM in assay [2].

In the case of `CCOC1(C(N)=O)CCN(c2cc(N(C)CC(C)(C)O)nc3c(-c4ccc(Cl)cc4)c(-c4ccccc4Cl)nn23)CC1` [Compound 44, 1-[2-(2-chlorophenyl)-3-(4-chlorophenyl)-5-[(2-hydroxy-2-methyl-propyl)-methyl-amino]pyrazolo[1,5-a]pyrimidin-7-yl]-4-ethoxy-piperidine-4-carboxamide], the IC50 in assay [1] was found to be 14.3 nM; in assay [2], 3.9 nM.

Regarding `CN(C)C(=O)CN(C)c1cc(N2CCC(C)(C(N)=O)CC2)n2nc(-c3ccccc3Cl)c(-c3ccc(Cl)cc3)c2n1` [Compound 25, 1-[2-(2-chlorophenyl)-3-(4-chlorophenyl)-5-[[2-(dimethylamino)-2-oxo-ethyl]-methyl-amino]-pyrazolo[1,5-a]pyrimidin-7-yl]-4-methyl-piperidine-4-carboxamide], the IC50 stood at 17.5 nM in assay [1] and 6.47 nM in assay [2].

Take `CC1(C(N)=O)CCN(c2cc(N3CCC[C@H]3C(N)=O)nc3c(-c4ccc(Cl)cc4)c(-c4ccccc4Cl)nn23)CC1` [Compound 37, 1-[5-[(2S)-2-carbamoylpyrrolidin-1-yl]-2-(2-chlorophenyl)-3-(4-chlorophenyl)pyrazolo[1,5-a]pyrimidin-7-yl]-4-methyl-piperidine-4-carboxamide]: the IC50 amounted to 35.3 nM in assay [1] and 5.91 nM in assay [2].

As to `CN(CP(C)(C)=O)c1cc(N2CC[C@H](CC(N)=O)C2)n2nc(-c3ccccc3Cl)c(-c3ccc(Cl)cc3)c2n1` [Compound 30, 2-[(3R)-1-[2-(2-chlorophenyl)-3-(4-chlorophenyl)-5-[dimethylphosphorylmethyl(methyl)amino]pyrazolo[1,5-a]pyrimidin-7-yl]pyrrolidin-3-yl]acetamide], the values for the IC50 in assay [1] and in assay [2] were 198 nM and 679 nM, respectively.

On to `CN(CP(C)(C)=O)c1cc(N2CCC[C@@H](C(N)=O)C2)n2nc(-c3ccccc3Cl)c(-c3ccc(Cl)cc3)c2n1` [Compound 34, (3R)-1-[2-(2-chlorophenyl)-3-(4-chlorophenyl)-5-[dimethylphosphorylmethyl(methyl)amino]pyrazolo[1,5-a]pyrimidin-7-yl]piperidine-3-carboxamide], for which the results for the IC50 in assay [1] and in assay [2] were 155 nM and above 10000 nM, respectively.

For the compound `CC(C)(O)COc1cc(N2CCN(S(C)(=O)=O)CC2)n2nc(-c3ccccc3Cl)c(-c3ccc(Cl)cc3)c2n1` [Compound 16, 1-[2-(2-chlorophenyl)-3-(4-chlorophenyl)-7-(4-methylsulfonylpiperazin-1-yl)pyrazolo[1,5-a]pyrimidin-5-yl]oxy-2-methyl-propan-2-ol], the IC50 in assay [1] is 13.3 nM; in assay [2] it was 5.91 nM.

As for `CC1(C(N)=O)CCN(c2cc(N3CC[C@@H](O)C3)nc3c(-c4ccc(Cl)cc4)c(-c4ccccc4Cl)nn23)CC1` [Compound 21, 1-[2-(2-chlorophenyl)-3-(4-chlorophenyl)-5-[(3R)-3-hydroxypyrrolidin-1-yl]pyrazolo[1,5-a]pyrimidin-7-yl]-4-methyl-piperidine-4-carboxamide], the IC50 in assay [1] amounted to 4.6 nM; in assay [2] it was 1.28 nM.

Turning to `CC(C)(O)COc1cc(N2CC(C)(C#N)C2)n2nc(-c3ccc(C#N)nc3)c(-c3ccc(Cl)cc3)c2n1` [Compound 51, 5-[3-(4-chlorophenyl)-7-(3-cyano-3-methyl-azetidin-1-yl)-5-(2-hydroxy-2-methyl-propoxy)pyrazolo[1,5-a]pyrimidin-2-yl]pyridine-2-carbonitrile], the values for the IC50 in assay [1] and in assay [2] were 1.73 nM and 0.95 nM, respectively.

With `COc1ccccc1-c1nn2c(-c3cccc(C#N)c3)cc(N3CCC[C@H]3CO)nc2c1-c1ccc(Cl)cc1` [Compound 3, 3-[3-(4-chlorophenyl)-5-[(2S)-2-(hydroxymethyl)pyrrolidin-1-yl]-2-(2-methoxyphenyl)pyrazolo[1,5-a]pyrimidin-7-yl]benzonitrile], the IC50 in assay [1] amounted to 9.94 nM; in assay [2], 1.77 nM.

For `CC(=O)NC1(C)CCN(c2cc(N(C)CCC(N)=O)nc3c(-c4ccc(Cl)cc4)c(-c4ccccc4Cl)nn23)CC1` [Compound 27, 3-[[7-(4-acetamido-4-methyl-1-piperidyl)-2-(2-chlorophenyl)-3-(4-chlorophenyl)pyrazolo[1,5-a]pyrimidin-5-yl]-methyl-amino]propanamide], the IC50 in assay [1] is 4.69 nM; in assay [2], 1.28 nM.

The values are drawn from patent publication US20250145628A1, “PYRAZOLOPYRIMIDINES, COMPOSITIONS COMPRISING THEM AND USES THEREOF” (Novo Nordisk A/S, priority 2022, published 2025).
